In ChEMBL document CHEMBL2157943, “Role of the side chain stereochemistry in the α-glucosidase inhibitory activity of kotalanol, a potent natural α-glucosidase inhibitor. Part 2” (Bioorg Med Chem, 2012):

Legend:
[1] = target: T1, Sucrase-isomaltase, intestinal (Rattus norvegicus, UniProt P23739); experiment: Inhibition of rat small intestinal isomaltase after 30 mins by glucose-oxidase method
[2] = target: T1, Sucrase-isomaltase, intestinal; experiment: Inhibition of rat small intestinal sucrase after 30 mins by glucose-oxidase method
[3] = target: Sucrase-isomaltase, intestinal (Rattus norvegicus) (UniProt P23739); settings: 100 ug/ml
Sequence of Sucrase-isomaltase, intestinal (Rattus norvegicus) (P23739 1-1013 limits assumed): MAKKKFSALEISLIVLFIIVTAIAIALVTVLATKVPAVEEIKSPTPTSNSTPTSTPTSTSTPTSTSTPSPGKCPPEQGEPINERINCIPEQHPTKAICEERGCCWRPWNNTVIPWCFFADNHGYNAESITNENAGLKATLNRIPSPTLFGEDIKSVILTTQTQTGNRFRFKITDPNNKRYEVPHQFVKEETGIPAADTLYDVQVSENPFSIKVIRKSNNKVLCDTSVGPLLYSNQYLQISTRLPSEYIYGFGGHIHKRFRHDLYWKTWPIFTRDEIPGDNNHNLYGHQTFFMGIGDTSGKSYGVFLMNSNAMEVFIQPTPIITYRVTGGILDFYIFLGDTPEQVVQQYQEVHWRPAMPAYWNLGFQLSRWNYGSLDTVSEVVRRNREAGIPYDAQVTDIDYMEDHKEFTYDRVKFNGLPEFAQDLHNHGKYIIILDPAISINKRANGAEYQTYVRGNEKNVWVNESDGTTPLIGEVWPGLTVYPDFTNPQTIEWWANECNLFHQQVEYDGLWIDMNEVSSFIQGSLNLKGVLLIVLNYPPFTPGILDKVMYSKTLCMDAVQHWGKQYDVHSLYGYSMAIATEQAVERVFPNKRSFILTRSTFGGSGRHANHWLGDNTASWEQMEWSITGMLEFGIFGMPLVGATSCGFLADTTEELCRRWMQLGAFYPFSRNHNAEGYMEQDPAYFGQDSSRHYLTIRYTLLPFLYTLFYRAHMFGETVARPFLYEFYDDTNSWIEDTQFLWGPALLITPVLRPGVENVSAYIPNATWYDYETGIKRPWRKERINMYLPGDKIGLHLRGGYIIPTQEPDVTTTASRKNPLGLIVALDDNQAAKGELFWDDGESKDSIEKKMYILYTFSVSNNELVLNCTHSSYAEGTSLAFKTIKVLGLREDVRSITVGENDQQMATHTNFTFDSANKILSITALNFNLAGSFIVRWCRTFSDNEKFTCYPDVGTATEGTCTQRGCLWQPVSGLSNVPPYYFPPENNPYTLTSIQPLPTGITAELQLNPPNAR
Sequence of Sucrase-isomaltase, intestinal (Rattus norvegicus) (P23739 1014-1841 limits assumed): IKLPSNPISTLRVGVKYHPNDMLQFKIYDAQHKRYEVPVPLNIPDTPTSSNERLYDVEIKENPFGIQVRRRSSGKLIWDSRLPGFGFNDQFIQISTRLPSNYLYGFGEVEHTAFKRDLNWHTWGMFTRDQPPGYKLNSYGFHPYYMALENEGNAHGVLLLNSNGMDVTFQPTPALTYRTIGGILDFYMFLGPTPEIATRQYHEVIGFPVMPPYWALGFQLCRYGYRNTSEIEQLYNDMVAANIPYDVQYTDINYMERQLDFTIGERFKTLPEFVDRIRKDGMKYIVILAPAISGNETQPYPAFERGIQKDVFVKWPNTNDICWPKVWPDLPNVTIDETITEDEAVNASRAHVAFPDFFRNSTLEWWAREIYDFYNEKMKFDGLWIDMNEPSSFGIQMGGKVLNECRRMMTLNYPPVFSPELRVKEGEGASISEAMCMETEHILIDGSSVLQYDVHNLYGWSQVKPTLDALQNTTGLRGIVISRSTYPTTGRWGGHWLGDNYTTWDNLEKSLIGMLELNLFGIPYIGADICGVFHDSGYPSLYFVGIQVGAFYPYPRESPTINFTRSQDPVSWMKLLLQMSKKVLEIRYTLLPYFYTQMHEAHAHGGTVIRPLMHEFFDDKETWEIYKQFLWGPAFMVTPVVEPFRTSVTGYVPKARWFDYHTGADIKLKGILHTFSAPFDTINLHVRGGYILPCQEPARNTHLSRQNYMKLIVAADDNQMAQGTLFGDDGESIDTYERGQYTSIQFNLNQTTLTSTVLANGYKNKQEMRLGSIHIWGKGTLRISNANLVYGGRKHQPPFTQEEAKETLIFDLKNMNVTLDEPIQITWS
Description: Inhibition of rat small intestinal sucrase at 100 ug/ml after 30 mins by glucose-oxidase method

[4] = target: Lysosomal alpha-glucosidase (Rattus norvegicus) (UniProt Q6P7A9); settings: 100 ug/ml
Sequence of Lysosomal alpha-glucosidase (Rattus norvegicus) (Q6P7A9 whole entry): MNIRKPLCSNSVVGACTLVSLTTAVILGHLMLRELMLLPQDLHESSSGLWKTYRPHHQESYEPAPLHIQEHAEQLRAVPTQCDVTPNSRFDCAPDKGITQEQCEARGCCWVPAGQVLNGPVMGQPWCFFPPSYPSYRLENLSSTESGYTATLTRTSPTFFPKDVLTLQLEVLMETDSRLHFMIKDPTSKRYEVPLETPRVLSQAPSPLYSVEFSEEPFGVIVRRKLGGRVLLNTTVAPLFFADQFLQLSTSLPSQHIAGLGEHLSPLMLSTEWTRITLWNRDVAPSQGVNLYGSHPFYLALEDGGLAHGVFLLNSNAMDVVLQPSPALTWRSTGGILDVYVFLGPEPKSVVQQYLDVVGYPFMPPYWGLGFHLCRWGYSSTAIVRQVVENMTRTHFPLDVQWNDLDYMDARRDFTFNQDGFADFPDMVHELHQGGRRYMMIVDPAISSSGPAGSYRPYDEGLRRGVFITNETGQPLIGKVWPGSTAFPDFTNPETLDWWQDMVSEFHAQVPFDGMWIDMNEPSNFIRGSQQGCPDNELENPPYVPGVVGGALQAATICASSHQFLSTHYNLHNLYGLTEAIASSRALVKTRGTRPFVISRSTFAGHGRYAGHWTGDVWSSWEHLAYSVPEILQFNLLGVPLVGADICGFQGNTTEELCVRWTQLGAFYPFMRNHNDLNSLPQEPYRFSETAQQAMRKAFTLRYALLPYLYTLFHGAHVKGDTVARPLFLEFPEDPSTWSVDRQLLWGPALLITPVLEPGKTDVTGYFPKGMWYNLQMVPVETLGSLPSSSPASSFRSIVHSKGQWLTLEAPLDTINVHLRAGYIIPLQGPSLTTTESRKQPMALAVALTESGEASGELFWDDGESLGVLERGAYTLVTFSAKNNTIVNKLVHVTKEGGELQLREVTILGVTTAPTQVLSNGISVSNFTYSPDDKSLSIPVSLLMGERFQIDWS
Description: Inhibition of rat small intestinal maltase at 100 ug/ml after 30 mins by glucose-oxidase method

T1 sequence (P23739 1-1013 limits assumed): as the sequence (P23739 1-1013 limits assumed) above
T1 sequence (P23739 1014-1841 limits assumed): as the sequence (P23739 1014-1841 limits assumed) above

Compound	IC50 [1]	IC50 [2]	inhibition [3]	inhibition [4]
O=S(=O)([O-])O[C@H]([C@@H](O)[C@@H](O)[C@@H](O)CO)[C@H](O)C[S@+]1C[C@@H](O)[C@H](O)[C@H]1CO	21 µM	> 236 µM	34%	45%
O=S(=O)([O-])O[C@@H]([C@@H](O)[C@H](O)[C@H](O)CO)[C@H](O)C[S@+]1C[C@@H](O)[C@H](O)[C@H]1CO	16 µM	214 µM		44%
O=S(=O)([O-])O[C@@H]([C@@H](O)[C@@H](O)[C@H](O)CO)[C@H](O)C[S@+]1C[C@@H](O)[C@H](O)[C@H]1CO	1.6 µM	67 µM		

More lines, in order of falling IC50 [1], values ahead:

IC50 [1]	IC50 [2]	inhibition [3]	inhibition [4]	Compound
58 µM	55 µM			O=S(=O)([O-])O[C@H]([C@@H](O)[C@H](O)[C@H](O)CO)[C@H](O)C[S@+]1C[C@@H](O)[C@H](O)[C@H]1CO
20 µM	> 236 µM	28%	32%	O=S(=O)([O-])O[C@H]([C@@H](O)[C@H](O)[C@@H](O)CO)[C@H](O)C[S@+]1C[C@@H](O)[C@H](O)[C@H]1CO
16 µM	> 236 µM	8%	25%	O=S(=O)([O-])O[C@H]([C@@H](O)[C@@H](O)[C@H](O)CO)[C@H](O)C[S@+]1C[C@@H](O)[C@H](O)[C@H]1CO (mixture of isomers)
11 µM	136 µM		42%	O=S(=O)([O-])O[C@@H]([C@@H](O)[C@H](O)[C@@H](O)CO)[C@H](O)C[S@+]1C[C@@H](O)[C@H](O)[C@H]1CO
6.5 µM	32 µM			O=S(=O)([O-])O[C@@H]([C@@H](O)[C@@H](O)[C@@H](O)CO)[C@H](O)C[S@+]1C[C@@H](O)[C@H](O)[C@H]1CO
